US20120270819A1, “USE OF COMPOUNDS WITH SGLT-1/SGLT-2 INHIBITOR ACTIVITY FOR PRODUCING MEDICAMENTS FOR TREATMENT OF BONE DISEASE” (SANOFI, priority 2009, published 2012)

Tested on: female Sprague-Dawley mature and young adult rats
Assay: Ex vivo dual energy X-ray absorptiometry (DXA) of right femur, 28-day oral rat study
Assay type: in vivo
Method: The following were evaluated: clinical signs (at least weekly), body weight (weekly), food consumption (weekly), hormones (Days 13 and 27), serum and urinary biochemical markers of bone turnover (Days 13 and 27), serum chemistry (at necropsy), bone densitometry by dual energy X-ray absorptiometry (DXA) and peripheral quantitative computed tomography (pQCT) (Week 2 and 4, as well as ex vivo), macroscopic observations at necropsy, organ weights, histopathology, biomechanical strength testing and femoral length measurements.
3.1 Ex Vivo Dual Energy X-Ray Absorptiometry (DXA)
DXA was used to measure bone mineral density (BMD), bone mineral content (BMC) and area. Single DXA scans were obtained for the excised right femur from all animals euthanized at the end of the treatment period (except three animals due to damaged femoral condyles) as well as two found dead animals. These exclusions had no adverse impact on the overall outcome of the study as sufficient specimens were measured in each groups. Scans were performed with a Hologic Discovery A bone densitometer as per PCS-MTL Standard Operating Procedures.

[1] = Mature Adults, 10 mg/kg/day (Table 5a)
[2] = Mature Adults, 10 mg/kg/day, mean
[3] = Mature Adults, 10 mg/kg/day, mean (Table 5a)
[4] = Mature Adults, 50 mg/kg/day (Table 5a)
[5] = Mature Adults, 50 mg/kg/day, mean
[6] = Mature Adults, 50 mg/kg/day, mean (Table 5a)
[7] = Young Adults, 10 mg/kg/day (Table 6a)
[8] = Young Adults, 10 mg/kg/day, mean
[9] = Young Adults, 10 mg/kg/day, mean (Table 6a)
[10] = Young Adults, 50 mg/kg/day (Table 6a)
[11] = Young Adults, 50 mg/kg/day, mean
[12] = Young Adults, 50 mg/kg/day, mean (Table 6a)

COc1ccc(Cc2c(OC3OC(CO)C(F)C(O)C3O)n[nH]c2C(F)(F)F)cc1 (stereo not drawn) [Example 5 of formula II]
DXA femur Distal Area, percent difference from Vehicle Control (Mature Adults, 10 mg/kg/day): 1.7% | DXA femur Distal BMC, percent difference from Vehicle Control (Mature Adults, 10 mg/kg/day): 6.2% | DXA femur Distal BMD, percent difference from Vehicle Control (Mature Adults, 10 mg/kg/day): 4.4% | DXA femur Global Area, percent difference from Vehicle Control (Mature Adults, 10 mg/kg/day): 1.9% | DXA femur Global BMC, percent difference from Vehicle Control (Mature Adults, 10 mg/kg/day): 6.0% | DXA femur Global BMD, percent difference from Vehicle Control (Mature Adults, 10 mg/kg/day): 4.0% | DXA femur Mid Area, percent difference from Vehicle Control (Mature Adults, 10 mg/kg/day): 3.9% | DXA femur Mid BMC, percent difference from Vehicle Control (Mature Adults, 10 mg/kg/day): 6.4% | DXA femur Mid BMD, percent difference from Vehicle Control (Mature Adults, 10 mg/kg/day): 2.4% | DXA femur Proximal Area, percent difference from Vehicle Control (Mature Adults, 10 mg/kg/day): 2.4% | DXA femur Proximal BMC, percent difference from Vehicle Control (Mature Adults, 10 mg/kg/day): 6.1% | DXA femur Proximal BMD, percent difference from Vehicle Control (Mature Adults, 10 mg/kg/day): 3.7% | DXA femur Mid Area, percent difference from Vehicle Control [1]: 3.86% | DXA femur Mid BMC, percent difference from Vehicle Control [1]: 6.45% | DXA femur Mid BMD, percent difference from Vehicle Control [1]: 2.35% | DXA femur Distal Area [2]: 0.41 cm^2 | DXA femur Distal BMC [2]: 0.14 g | DXA femur Distal BMD [2]: 0.34 g/cm^2 | DXA femur Global Area [2]: 1.91 cm^2 | DXA femur Global BMC [2]: 0.52 g | DXA femur Global BMD [2]: 0.27 g/cm^2 | DXA femur Mid Area [2]: 0.45 cm^2 | DXA femur Mid BMC [2]: 0.11 g | DXA femur Mid BMD [2]: 0.24 g/cm^2 | DXA femur Proximal Area [2]: 0.63 cm^2 | DXA femur Proximal BMC [2]: 0.18 g | DXA femur Proximal BMD [2]: 0.28 g/cm^2 | DXA femur Mid Area [3]: 0.45 cm^2 | DXA femur Mid BMC [3]: 0.11 g | DXA femur Mid BMD [3]: 0.24 g/cm^2 | DXA femur Distal Area, percent difference from Vehicle Control (Mature Adults, 50 mg/kg/day): −0.1% | DXA femur Distal BMC, percent difference from Vehicle Control (Mature Adults, 50 mg/kg/day): 8.3% | DXA femur Distal BMD, percent difference from Vehicle Control (Mature Adults, 50 mg/kg/day): 8.4% | DXA femur Global Area, percent difference from Vehicle Control (Mature Adults, 50 mg/kg/day): −1.2% | DXA femur Global BMC, percent difference from Vehicle Control (Mature Adults, 50 mg/kg/day): 3.7% | DXA femur Global BMD, percent difference from Vehicle Control (Mature Adults, 50 mg/kg/day): 5.0% | DXA femur Mid Area, percent difference from Vehicle Control (Mature Adults, 50 mg/kg/day): −1.0% | DXA femur Mid BMC, percent difference from Vehicle Control (Mature Adults, 50 mg/kg/day): 1.2% | DXA femur Mid BMD, percent difference from Vehicle Control (Mature Adults, 50 mg/kg/day): 2.3% | DXA femur Proximal Area, percent difference from Vehicle Control (Mature Adults, 50 mg/kg/day): 0.1% | DXA femur Proximal BMC, percent difference from Vehicle Control (Mature Adults, 50 mg/kg/day): 3.0% | DXA femur Proximal BMD, percent difference from Vehicle Control (Mature Adults, 50 mg/kg/day): 2.9% | DXA femur Mid Area, percent difference from Vehicle Control [4]: −0.97% | DXA femur Mid BMC, percent difference from Vehicle Control [4]: 1.25% | DXA femur Mid BMD, percent difference from Vehicle Control [4]: 2.26% | DXA femur Distal Area [5]: 0.41 cm^2 | DXA femur Distal BMC [5]: 0.14 g | DXA femur Distal BMD [5]: 0.35 g/cm^2 | DXA femur Global Area [5]: 1.85 cm^2 | DXA femur Global BMC [5]: 0.51 g | DXA femur Global BMD [5]: 0.27 g/cm^2 | DXA femur Mid Area [5]: 0.43 cm^2 | DXA femur Mid BMC [5]: 0.11 g | DXA femur Mid BMD [5]: 0.24 g/cm^2 | DXA femur Proximal Area [5]: 0.61 cm^2 | DXA femur Proximal BMC [5]: 0.17 g | DXA femur Proximal BMD [5]: 0.28 g/cm^2 | DXA femur Mid Area [6]: 0.43 cm^2 | DXA femur Mid BMC [6]: 0.11 g | DXA femur Mid BMD [6]: 0.24 g/cm^2 | DXA femur Distal Area, percent difference from Vehicle Control (Young Adults, 10 mg/kg/day): 1.7% | DXA femur Distal BMC, percent difference from Vehicle Control (Young Adults, 10 mg/kg/day): 6.4% | DXA femur Distal BMD, percent difference from Vehicle Control (Young Adults, 10 mg/kg/day): 4.7% | DXA femur Global Area, percent difference from Vehicle Control (Young Adults, 10 mg/kg/day): −2.5% | DXA femur Global BMC, percent difference from Vehicle Control (Young Adults, 10 mg/kg/day): 0.5% | DXA femur Global BMD, percent difference from Vehicle Control (Young Adults, 10 mg/kg/day): 3.2% | DXA femur Mid Area, percent difference from Vehicle Control (Young Adults, 10 mg/kg/day): −0.9% | DXA femur Mid BMC, percent difference from Vehicle Control (Young Adults, 10 mg/kg/day): −2.6% | DXA femur Mid BMD, percent difference from Vehicle Control (Young Adults, 10 mg/kg/day): −1.9% | DXA femur Proximal Area, percent difference from Vehicle Control (Young Adults, 10 mg/kg/day): −2.6% | DXA femur Proximal BMC, percent difference from Vehicle Control (Young Adults, 10 mg/kg/day): −0.8% | DXA femur Proximal BMD, percent difference from Vehicle Control (Young Adults, 10 mg/kg/day): 1.8% | DXA femur Mid Area, percent difference from Vehicle Control [7]: −0.89% | DXA femur Mid BMC, percent difference from Vehicle Control [7]: −2.61% | DXA femur Mid BMD, percent difference from Vehicle Control [7]: −1.87% | DXA femur Distal Area [8]: 0.37 cm^2 | DXA femur Distal BMC [8]: 0.10 g | DXA femur Distal BMD [8]: 0.26 g/cm^2 | DXA femur Global Area [8]: 1.45 cm^2 | DXA femur Global BMC [8]: 0.30 g | DXA femur Global BMD [8]: 0.21 g/cm^2 | DXA femur Mid Area [8]: 0.39 cm^2 | DXA femur Mid BMC [8]: 0.07 g | DXA femur Mid BMD [8]: 0.17 g/cm^2 | DXA femur Proximal Area [8]: 0.50 cm^2 | DXA femur Proximal BMC [8]: 0.11 g | DXA femur Proximal BMD [8]: 0.22 g/cm^2 | DXA femur Mid Area [9]: 0.39 cm^2 | DXA femur Mid BMC [9]: 0.07 g | DXA femur Mid BMD [9]: 0.17 g/cm^2 | DXA femur Distal Area, percent difference from Vehicle Control (Young Adults, 50 mg/kg/day): 0.5% | DXA femur Distal BMC, percent difference from Vehicle Control (Young Adults, 50 mg/kg/day): 8.4% | DXA femur Distal BMD, percent difference from Vehicle Control (Young Adults, 50 mg/kg/day): 7.9% | DXA femur Global Area, percent difference from Vehicle Control (Young Adults, 50 mg/kg/day): −4.7% | DXA femur Global BMC, percent difference from Vehicle Control (Young Adults, 50 mg/kg/day): 0.0% | DXA femur Global BMD, percent difference from Vehicle Control (Young Adults, 50 mg/kg/day): 4.9% | DXA femur Mid Area, percent difference from Vehicle Control (Young Adults, 50 mg/kg/day): −0.8% | DXA femur Mid BMC, percent difference from Vehicle Control (Young Adults, 50 mg/kg/day): −3.2% | DXA femur Mid BMD, percent difference from Vehicle Control (Young Adults, 50 mg/kg/day): −2.6% | DXA femur Proximal Area, percent difference from Vehicle Control (Young Adults, 50 mg/kg/day): −4.9% | DXA femur Proximal BMC, percent difference from Vehicle Control (Young Adults, 50 mg/kg/day): −4.0% | DXA femur Proximal BMD, percent difference from Vehicle Control (Young Adults, 50 mg/kg/day): 1.0% | DXA femur Mid Area, percent difference from Vehicle Control [10]: −0.77% | DXA femur Mid BMC, percent difference from Vehicle Control [10]: −3.16% | DXA femur Mid BMD, percent difference from Vehicle Control [10]: −2.62% | DXA femur Distal Area [11]: 0.37 cm^2 | DXA femur Distal BMC [11]: 0.10 g | DXA femur Distal BMD [11]: 0.27 g/cm^2 | DXA femur Global Area [11]: 1.42 cm^2 | DXA femur Global BMC [11]: 0.30 g | DXA femur Global BMD [11]: 0.21 g/cm^2 | DXA femur Mid Area [11]: 0.39 cm^2 | DXA femur Mid BMC [11]: 0.07 g | DXA femur Mid BMD [11]: 0.17 g/cm^2 | DXA femur Proximal Area [11]: 0.49 cm^2 | DXA femur Proximal BMC [11]: 0.11 g | DXA femur Proximal BMD [11]: 0.21 g/cm^2 | DXA femur Mid Area [12]: 0.39 cm^2 | DXA femur Mid BMC [12]: 0.07 g | DXA femur Mid BMD [12]: 0.17 g/cm^2
